Several values for one entry are separate records, joined by “and”; a condition that tells them apart may be missing. Identical values can stand only once.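 Where inhibition never reached the appropriate level, the endpoint shown equals the highest concentration tested. Otherwise, values were interpolated linearly from a five-concentration, 48-hour dose response in 96-well plates. At the GI50, growth is halved. TGI: total growth inhibition.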
How the values were obtained:
Test in all cases: NCI tumour cell line growth inhibition, 48 h
CAKI-1 renal = tested on: CAKI-1 renal
CCRF-CEM leukemia = tested on: CCRF-CEM leukemia
HCT-116 colon = tested on: HCT-116 colon
HOP-62 NSCLC = tested on: HOP-62 NSCLC
NCI-H226 lung = tested on: NCI-H226 lung
NCI-H23 lung = tested on: NCI-H23 lung
NCI-H460 lung = tested on: NCI-H460 lung
SF-295 CNS = tested on: SF-295 CNS
SNB-75 CNS = tested on: SNB-75 CNS
TK-10 renal = tested on: TK-10 renal

## NC(Cc1ccc(O)cc1)C(=O)N/N=C/c1ccc(N(CCCl)CCCl)cc1 (configuration not stated)
CAKI-1 renal
  GI50: 1.83 µM
  TGI: 18.4 µM
CCRF-CEM leukemia
  GI50: 0.231 µM
  TGI: > 100 µM
HCT-116 colon
  GI50: 21.8 µM
  TGI: > 100 µM
HOP-62 NSCLC
  GI50: 11.1 µM
  TGI: > 100 µM
NCI-H226 lung
  GI50: 3.01 µM
  TGI: 31.6 µM
NCI-H23 lung
  GI50: 12.3 µM
  TGI: > 100 µM
NCI-H460 lung
  GI50: 0.647 µM
  TGI: 26.7 µM
SF-295 CNS
  GI50: 1.37 µM
  TGI: 6.35 µM
SNB-75 CNS
  GI50: 12.6 µM
  TGI: > 100 µM
TK-10 renal
  GI50: 25.2 µM
  TGI: > 100 µM

## CCOc1ccc(/C=N\N2C(=O)c3ccccc3C2=O)cc1
CAKI-1 renal
  TGI: > 100 µM
CCRF-CEM leukemia
  TGI: > 100 µM
HCT-116 colon
  TGI: > 100 µM
HOP-62 NSCLC
  TGI: > 100 µM
NCI-H226 lung
  TGI: > 100 µM
NCI-H23 lung
  TGI: > 100 µM
NCI-H460 lung
  TGI: > 100 µM
SF-295 CNS
  TGI: > 100 µM
SNB-75 CNS
  TGI: > 100 µM
TK-10 renal
  TGI: > 100 µM

## O=Cc1c[nH]c2ccc(-c3csc4ccccc34)cc12
CAKI-1 renal
  GI50: 1.93 µM
  TGI: > 100 µM
CCRF-CEM leukemia
  GI50: 2.64 µM
  TGI: 10.6 µM
HCT-116 colon
  GI50: 3.6 µM
  TGI: > 100 µM
HOP-62 NSCLC
  GI50: 3.06 µM
  TGI: 39.9 µM
NCI-H226 lung
  GI50: 3.7 µM
  TGI: > 100 µM
NCI-H23 lung
  GI50: 18.2 µM
  TGI: > 100 µM
NCI-H460 lung
  GI50: 3.46 µM
  TGI: > 100 µM
SF-295 CNS
  GI50: 2.64 µM
  TGI: 13.1 µM
SNB-75 CNS
  GI50: 1.25 µM
  TGI: 5.88 µM
TK-10 renal
  GI50: 3.13 µM
  TGI: 16.7 µM

## O=C1/C(=C\c2ccc([N+](=O)[O-])cc2)CS(=O)(=O)C/C1=C/c1ccc([N+](=O)[O-])cc1
CAKI-1 renal
  GI50: 0.121 µM
CCRF-CEM leukemia
  GI50: 0.0128 µM
  TGI: 0.133 µM
HCT-116 colon
  GI50: 0.0821 µM
  TGI: 0.227 µM and 1.28 µM
HOP-62 NSCLC
  GI50: 0.284 µM
  TGI: 3.94 µM
NCI-H226 lung
  GI50: 0.163 µM
NCI-H23 lung
  GI50: 0.252 µM
  TGI: 0.651 µM and 5.12 µM
NCI-H460 lung
  GI50: 0.256 µM
  TGI: 2.48 µM
SF-295 CNS
  GI50: 0.563 µM
  TGI: 6.42 µM
SNB-75 CNS
  TGI: 53.2 µM
TK-10 renal
  GI50: 0.992 µM
  TGI: 2.97 µM

## CN=c1ss/c(=N\C(=S)N(C)C)n1C1CCCCC1
CAKI-1 renal
  TGI: > 31.6 µM
CCRF-CEM leukemia
  TGI: > 31.6 µM
HCT-116 colon
  TGI: > 10 µM
HOP-62 NSCLC
  TGI: > 100 µM
NCI-H226 lung
  TGI: > 31.6 µM
NCI-H23 lung
  TGI: > 31.6 µM
NCI-H460 lung
  TGI: > 31.6 µM
SF-295 CNS
  TGI: > 31.6 µM
SNB-75 CNS
  TGI: > 10 µM
TK-10 renal
  TGI: > 31.6 µM

## Cc1ccc(SC2C(C)(C)N(C(C)C)P2(=O)N(C(C)C)C(C)C)cc1 (configuration not stated)
CAKI-1 renal
  TGI: > 100 µM
CCRF-CEM leukemia
  TGI: > 55.7 µM
HCT-116 colon
  TGI: > 63.4 µM
HOP-62 NSCLC
  TGI: > 100 µM
NCI-H226 lung
  TGI: > 100 µM
NCI-H23 lung
  TGI: > 100 µM
NCI-H460 lung
  TGI: > 67.6 µM
SF-295 CNS
  TGI: > 100 µM
SNB-75 CNS
  TGI: > 100 µM
TK-10 renal
  TGI: > 100 µM

## COc1ccc(-c2nnc(Nc3nc(O)c(C4=c5cc(OC(F)(F)F)ccc5=NC4=O)s3)o2)cc1
CAKI-1 renal
  GI50: 12.4 µM
  TGI: 69.2 µM
CCRF-CEM leukemia
  GI50: 25.5 µM
  TGI: 51.1 µM
HCT-116 colon
  GI50: 12.5 µM
  TGI: 25.4 µM
HOP-62 NSCLC
  GI50: 15.7 µM
  TGI: 30.3 µM
NCI-H226 lung
  GI50: 17.4 µM
  TGI: 38.1 µM
NCI-H23 lung
  GI50: 14.1 µM
  TGI: 30.6 µM
NCI-H460 lung
  GI50: 22 µM
  TGI: > 100 µM
SF-295 CNS
  GI50: 6.12 µM
  TGI: > 100 µM
SNB-75 CNS
  GI50: 15.3 µM
  TGI: 36.8 µM
TK-10 renal
  GI50: 20.5 µM
  TGI: 58.2 µM

## C/C(=C\CCc1ccsc1)CC/C=C(\C)CCCN1CCN(CCO)CC1
CAKI-1 renal
  GI50: 4.26 µM
  TGI: 16.4 µM
CCRF-CEM leukemia
  GI50: 2.28 µM
  TGI: 6.51 µM
HCT-116 colon
  GI50: 2.71 µM
  TGI: 9.26 µM
HOP-62 NSCLC
  GI50: 2.6 µM
  TGI: 6.4 µM
NCI-H226 lung
  GI50: 5.68 µM
  TGI: 24.3 µM
NCI-H23 lung
  GI50: 3.37 µM
  TGI: 13.4 µM
NCI-H460 lung
  GI50: 1.96 µM
  TGI: 3.79 µM
SF-295 CNS
  GI50: 2.29 µM
  TGI: 5.64 µM
SNB-75 CNS
  GI50: 2.45 µM
  TGI: 8.51 µM
TK-10 renal
  GI50: 2.5 µM
  TGI: 7.34 µM

## COC(=O)CSc1n[nH]c(-c2ccccc2)n1
CAKI-1 renal
  TGI: > 100 µM
CCRF-CEM leukemia
  TGI: > 100 µM
HCT-116 colon
  TGI: > 100 µM
HOP-62 NSCLC
  TGI: > 100 µM
NCI-H226 lung
  TGI: > 100 µM
NCI-H23 lung
  TGI: > 100 µM
NCI-H460 lung
  TGI: > 100 µM
SF-295 CNS
  TGI: > 100 µM
SNB-75 CNS
  TGI: > 100 µM
TK-10 renal
  TGI: > 100 µM

## Cc1ccc(C2NC(=S)N3C(c4ccc(C)cc4)NC(=S)N23)cc1 (configuration not stated)
CAKI-1 renal
  GI50: 2.68 µM
  TGI: 7.01 µM
CCRF-CEM leukemia
  GI50: 2.46 µM
  TGI: 10.2 µM
HCT-116 colon
  GI50: 4 µM
  TGI: 13.4 µM
HOP-62 NSCLC
  GI50: 5.89 µM
  TGI: 20.1 µM
NCI-H226 lung
  GI50: 6.85 µM
  TGI: 29 µM
NCI-H23 lung
  GI50: 5.29 µM
  TGI: 17.9 µM
NCI-H460 lung
  GI50: 3.82 µM
  TGI: 13.1 µM
SF-295 CNS
  GI50: 2.92 µM
  TGI: 11.8 µM
SNB-75 CNS
  GI50: 2.87 µM
  TGI: 12.1 µM
TK-10 renal
  GI50: 12.3 µM
  TGI: 26.9 µM

## O=C1c2ccccc2-c2c1c1c(O)cccc1n2CCCc1ccccc1
CAKI-1 renal
  GI50: 24.9 µM
  TGI: > 100 µM
CCRF-CEM leukemia
  GI50: 24.1 µM
  TGI: > 100 µM
HCT-116 colon
  GI50: 5.91 µM
  TGI: > 100 µM
HOP-62 NSCLC
  GI50: 43 µM
  TGI: > 100 µM
NCI-H226 lung
  GI50: 11.2 µM
  TGI: 50.9 µM
NCI-H23 lung
  GI50: 18.6 µM
  TGI: > 100 µM
NCI-H460 lung
  GI50: 29.7 µM
  TGI: > 100 µM
SF-295 CNS
  GI50: 7.33 µM
  TGI: > 100 µM
SNB-75 CNS
  GI50: 51.7 µM
  TGI: > 100 µM
TK-10 renal
  GI50: 10.1 µM
  TGI: 56.7 µM

## COc1ccccc1N(C(C)=O)C1=C(Cl)C(=O)c2ccccc2C1=O
CAKI-1 renal
  GI50: 1.45 µM
  TGI: 3.3 µM
CCRF-CEM leukemia
  GI50: 1.95 µM
  TGI: 5.11 µM
HCT-116 colon
  GI50: 0.76 µM
  TGI: 2.18 µM
HOP-62 NSCLC
  GI50: 3.03 µM
  TGI: 12.6 µM
NCI-H226 lung
  GI50: 1.51 µM
  TGI: 6.01 µM
NCI-H23 lung
  GI50: 1.65 µM
  TGI: 6 µM
NCI-H460 lung
  GI50: 3.17 µM
  TGI: 12.2 µM
SF-295 CNS
  GI50: 2.38 µM
  TGI: 6.5 µM
SNB-75 CNS
  GI50: 1.72 µM
  TGI: 7.6 µM
TK-10 renal
  GI50: 1.87 µM
  TGI: 3.3 µM

## CCOC(=O)c1c(C(F)(F)F)n([O-])c2ccc(Cl)cc2[n+]1=O
CAKI-1 renal
  GI50: 1.35 µM
  TGI: 2.87 µM
CCRF-CEM leukemia
  GI50: 1.77 µM
  TGI: 3.99 µM
HCT-116 colon
  GI50: 1.86 µM
  TGI: 3.43 µM
HOP-62 NSCLC
  GI50: 1.88 µM
  TGI: 3.47 µM
NCI-H226 lung
  GI50: 2.13 µM
  TGI: 5.78 µM
NCI-H23 lung
  GI50: 1.71 µM
  TGI: 3.43 µM
NCI-H460 lung
  GI50: 2.05 µM
  TGI: 3.99 µM
SF-295 CNS
  GI50: 1.24 µM
  TGI: 2.83 µM
SNB-75 CNS
  GI50: 1.43 µM
  TGI: 5.36 µM
TK-10 renal
  GI50: 1.6 µM
  TGI: 3.23 µM

## Oc1[nH]c2ccc(Cl)cc2c1/C=c1/ccc2c(c1)N=C(c1ccc(C(F)(F)F)cc1)N=2
CAKI-1 renal
  GI50: 2.74 µM
  TGI: 9.55 µM
CCRF-CEM leukemia
  GI50: 2.43 µM
  TGI: 6.96 µM
HCT-116 colon
  GI50: 1.98 µM
  TGI: 5.02 µM
HOP-62 NSCLC
  GI50: 2.28 µM
  TGI: 4.78 µM
NCI-H226 lung
  GI50: 3.13 µM
  TGI: 11.6 µM
NCI-H23 lung
  GI50: 3.08 µM
  TGI: 13.6 µM
NCI-H460 lung
  GI50: 1.88 µM
  TGI: 3.82 µM
SF-295 CNS
  GI50: 1.87 µM
  TGI: 5.04 µM
SNB-75 CNS
  GI50: 2.03 µM
  TGI: 7.51 µM
TK-10 renal
  GI50: 3.62 µM
  TGI: 9.75 µM

From PubChem BioAssay (NCI)
